Source: patent US20240360148A1 (SUVALENT THERAPEUTICS, INC., priority 2021, published 2024)
In brackets after ≈: the same amount, converted by molar mass. Where two headings read alike, the source gives them in different places.

Tests used:
[1] = Plasma protein binding, equilibrium dialysis, mouse plasma; assay type: in vitro ADME; settings: 5 hours at 37° C., read-out: PPB % bound Mouse (converted)
Description: (§1) The compounds of interest were evaluated for various PK parameters. Specifically CACO permeability/efflux and plasma protein binding (PPP) were determined. Stock solutions were prepared at 10 mM in DMSO for test and reference compounds. Aliquots of the stock solution were diluted to 500× of final concentration (0.5 mM) with DMSO, then further diluted upon the addition of bank PE3-buffer to 20× of final concentration (20 μM). Then test and reference compounds were prepared in plasma at 1 μM. For 0 hour incubation: 25 μL of the plasma spiked with test and reference compounds was transferred into a 96-well sample preparation plate, and then 25 μL blank PB-buffer was added. The samples were quenched by 200 μL of IS solution to prepare [Initial]0h samples. For 5 hours incubation: 100 μL of the plasma spiking with test and reference compounds was loaded on donor side, and 100 μL of blank PB-buffer were loaded on receiver side of the equilibrium dialysis device. Samples were incubated in an air-bath shaker (60 rpm) for 5 hours at 37° C. After 5 hours incubation, 25 μL of samples (from both the donor sides and receiver sides of the dialysis apparatus) was aspirated and added into new sample preparation plates, separately. 25 μL of blank PB-buffer was added to donor side samples and 25 μL of blank plasma was added to receiver side samples to balance the matrix. The samples were quenched with 200 μL of IS solution. The assay plate was shaken at the vibrator (Hangzhou Allsheng, MX100-4A) for 10 min (600 rpm) and then centrifuged at 5,594×g for 15 min (Thermo Multifuge×3R). An aliquot of the 50 μL supernatant was taken from each well and diluted by 50 μL distilled water, then analyzed by UPLC-MS/MS.

[2] = Plasma protein binding, equilibrium dialysis, human plasma; assay type: in vitro ADME; settings: 5 hours at 37° C., read-out: PPB % bound Human (converted)
Description: as §1

[3] = tested on: sumoylation levels (SUMO 2/3 conjugates) in HCT-116 cells; test: HCT-116 4 Hour Cell Assay (Western, SUMO 2/3 conjugates); assay type: cell-based; settings: 4 h treatment, Anti-Sumo 2-3 immunoblot, read-out: HCT-116 Western 4 h IC50 (μM) Ave
How it was run: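 IC50 derived from fluorescent immunoblot quantification of SUMO 2/3 conjugate bands, normalized to total protein, after non-reducing SDS-PAGE. Lysis used RIPA plus NEM; exposure was 4 h across 11 concentrations, three-fold serial dilution starting at 25 μM.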

SAE1 [4] = biological target: SAE1 (Homo sapiens (Human), UniProt Q9UBT2); test: SAE High Throughput Biochemical Assay (HTRF), 15 min preincubation; settings: SAE1 12.5 nM, ATP 100 μM
Sequence of SAE1 (Homo sapiens (Human), UniProt Q9UBT2) (Q9UBE0 whole entry): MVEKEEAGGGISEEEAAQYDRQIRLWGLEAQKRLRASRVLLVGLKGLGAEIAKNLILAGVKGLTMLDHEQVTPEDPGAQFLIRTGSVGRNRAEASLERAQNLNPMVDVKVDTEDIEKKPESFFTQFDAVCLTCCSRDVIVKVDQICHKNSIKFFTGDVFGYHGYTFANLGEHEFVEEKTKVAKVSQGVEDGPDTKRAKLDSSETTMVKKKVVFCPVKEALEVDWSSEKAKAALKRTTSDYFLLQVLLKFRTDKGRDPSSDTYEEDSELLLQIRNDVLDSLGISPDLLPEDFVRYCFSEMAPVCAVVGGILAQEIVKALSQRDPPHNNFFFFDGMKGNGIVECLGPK
Sequence of SAE1 (Homo sapiens (Human), UniProt Q9UBT2) (Q9UBT2 whole entry): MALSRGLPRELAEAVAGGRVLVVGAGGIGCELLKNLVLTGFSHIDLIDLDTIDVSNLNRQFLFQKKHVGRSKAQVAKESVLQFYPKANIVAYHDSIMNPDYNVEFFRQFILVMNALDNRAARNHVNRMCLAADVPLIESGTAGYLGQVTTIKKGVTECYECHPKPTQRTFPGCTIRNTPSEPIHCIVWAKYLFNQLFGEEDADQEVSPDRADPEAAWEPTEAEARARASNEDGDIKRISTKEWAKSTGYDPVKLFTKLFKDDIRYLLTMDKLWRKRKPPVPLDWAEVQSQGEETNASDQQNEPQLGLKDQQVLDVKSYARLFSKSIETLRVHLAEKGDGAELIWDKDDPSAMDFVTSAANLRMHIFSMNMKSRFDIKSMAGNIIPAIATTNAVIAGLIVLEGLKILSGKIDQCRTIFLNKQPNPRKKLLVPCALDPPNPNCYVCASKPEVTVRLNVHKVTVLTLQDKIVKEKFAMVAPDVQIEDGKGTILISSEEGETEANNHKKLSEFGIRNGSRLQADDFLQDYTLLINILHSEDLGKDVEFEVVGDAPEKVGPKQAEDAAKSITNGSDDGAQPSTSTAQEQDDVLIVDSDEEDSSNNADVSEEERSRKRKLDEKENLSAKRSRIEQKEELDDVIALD
How it was run: (§2)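 HTRF detection of SUMO transfer from SUMO-GST to UBC9-His (40 nM each) by SAE1 at 12.5 nM used 100 μM ATP in pH 7.5 HEPES buffer with 10 mM MgCl2 and 0.1% BSA. Enzyme and compound were preincubated 15 min at RT and the reaction ran 45 min, with readings after 2 h and overnight.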

Caco-2 cells = test: Caco-2 permeability/efflux; assay type: in vitro ADME; settings: 10 uM, 37° C., 90 min, pH 7.4
Description: (§3) Caco-2 cells were obtained from American Tissue Culture Collection (Rockville, MD). The cells were maintained in Modified Eagle's medium (MEM), containing 10% heat-inactivated fetal bovine serum (FBS), and 1% non-essential amino acids, in CO2 at 37° C. Cells were seeded on polycarbonate filter inserts (Millipore, CAT #PSHT 010 R5). The cells were cultured for 21-28 days prior to the permeability experiments. The Lucifer Yellow permeability was checked before and after the assay. Compounds were dissolved at 10 mM in 100% dimethyl sulfoxide (DMSO) and diluted for studies in Hanks Balanced Salt Solution (HBSS, Invitrogen, Cat #14025-092) with 25 mM HEPES, pH 7.4. Compounds were tested at 10 µM in both the apical-to-basolateral (A-B) and basolateral-to-apical (B-A) directions, incubations were conducted at 37° C. for 90 min. At the end of incubation, samples were diluted by assay buffer, and analyzed by LC-MS/MS. The concentrations of the compounds were quantified by standard curve. The first comparator example (Comp. Ex. 1) is the chloro substituted thienodihydropyridine

[5] = Caco-2 permeability/efflux; assay type: in vitro ADME; settings: human, Caco-2, pH 7.4; B-A / A-B
Description: as §3

Solubility Evaluation = assay type: physicochemical; settings: kinetic from dmso stock, 1 hour at RT
Description: The compounds of interest were evaluated for their solubility in various biological solutions. Specifically, aliquots (8 μL) of reference and test compound stock solutions (10 mM) were added into 792 μL of buffer (PBS, pH7.4, FaSSIF, pH 6.5, or FaSSGF, pH 1.6) respectively (Final DMSO conc.: 1%). Sample tubes were shaken for 1 hour (1000 rpm) at RT. The experiment was calibrated using 300 μM spiked solution (SS) in MeOH/CAN (4:1) by adding 6 μL of 10 mM compound stock solution in 194 μL MeOH/ACN(4:1) ranging from 60 μM to 0.02 μM. The samples were centrifuged (10 min-12000 rpm) to precipitate un-dissolved particles. The supernatants were transferred to a new tube or plate. Supernatants were diluted 10 times and 100 times with 100 mM buffer then analyzed by LC-MS/MS. SGF=simulated gastric fluid, SIF=simulated intestinal fluid, PBS=phosphate buffered saline pH 7.4 Values are noted in μM.

SAE1 [6] = biological target: SAE1 (Homo sapiens (Human), UniProt Q9UBE0+Q9UBT2); test: SAE High Throughput Biochemical Assay (HTRF), 15 min preincubation; settings: read-out: 15 min preincubation HTRF IC50 (μM) Ave, SAE1 12.5 nM, ATP 100 μM
Sequence of SAE1 (Homo sapiens (Human), UniProt Q9UBE0+Q9UBT2) (Q9UBE0 whole entry): as the sequence (Q9UBE0 whole entry) above
Sequence of SAE1 (Homo sapiens (Human), UniProt Q9UBE0+Q9UBT2) (Q9UBT2 whole entry): as the sequence (Q9UBT2 whole entry) above
How it was run: as §2

[7] = Plasma protein binding, equilibrium dialysis, dog plasma; assay type: in vitro ADME; settings: 5 hours at 37° C., read-out: PPB % bound Dog (converted)
Description: as §1

[8] = Plasma protein binding, equilibrium dialysis, rat plasma; assay type: in vitro ADME; settings: 5 hours at 37° C., read-out: PPB % bound Rat (converted)
Description: as §1

[9] = PBS (phosphate buffered saline), aqueous buffer, phosphate buffered saline pH 7.4, 1% DMSO, read-out: Solubilities PBS
[10] = simulated intestinal fluid (FaSSIF, pH 6.5), 1% DMSO, read-out: Solubilities SIF

Structure (SMILES)	fraction unbound at 5 h, 1 μM [1]	fraction unbound at 5 h, 1 μM [2]	IC50 ([3]; Homo sapiens, HCT-116, 4 h) [µM]	IC50 (SAE1 [4]) [µM]	Caco-2 apparent permeability (Papp) (Caco-2 cells; apical-to-basolateral)	Caco-2 apparent permeability (Papp) (Caco-2 cells; basolateral-to-apical)	efflux ratio at 90 min, 10 μM [5]	solubility at 1 h (Solubility Evaluation; [9]) [µM]	solubility at 1 h (Solubility Evaluation; [10]) [µM]	IC50 (SAE1 [6]) [µM]	fraction unbound at 5 h, 1 μM [7]	IC50 [3] [µM]	fraction unbound at 5 h, 1 μM [8]
C=CC(=O)N1Cc2sc(Cl)cc2[C@H](c2ccccc2-c2cn(CC)nc2C(F)(F)F)C1 [Comp. Ex. 1, reference compound]	< 0.001	0.002											
CCn1cc(-c2ccccc2[C@@H]2CN(C(=O)/C=C/CN(C)C)Cc3sc(Cl)cc32)c(C(F)(F)F)n1 [Comp. Ex. 2, reference compound]	< 0.003	0.008											
CCn1cc(-c2ccccc2[C@@H]2CN(C(=O)/C=C/CNC)Cc3sc(C#N)cc32)c(C(F)(F)F)n1 [Example 12, (S, E)-4-(2-(1-Ethyl-3-(trifluoromethyl)-1 H-pyrazol-4-yl)phenyl)-6-(4-(methylamino)but-2-enoyl)-4,5,6,7-tetrahydrothieno[2,3-c]pyridine-2-carbonitrile]	0.035	0.049	0.353	3.33	5 10^-6 cm/s	58 10^-6 cm/s	5						
CCn1cc(-c2c(F)cccc2[C@@H]2CN(C(=O)/C=C/[C@H](C)NC)Cc3sc(C#N)cc32)c(C(F)(F)F)n1 [Example 89, (S)-4-(2-(1-Ethyl-3-(trifluoromethyl)-1 H pyrazol-4-yl)-3-fluorophenyl)-6-((S, E)-4-(methylamino)pent-2-enoyl)-4,5,6,7-tetrahydrothieno[2,3-c]pyridine-2-carbonitrile]	0.024	0.029	0.145		8 10^-6 cm/s	11 10^-6 cm/s		78 (≈ 41.5 µg/mL)	90 (≈ 47.8 µg/mL)	1.13			
CCn1cc(-c2c(F)cccc2[C@@H]2CN(C(=O)/C=C/[C@@H]3CCCN3)Cc3sc(C#N)cc32)c(C(F)(F)F)n1 [Example 118, (S)-4-(2-(1-Ethyl-3-(trifluoromethyl)-1H-pyrazol-4-yl)-3-fluorophenyl)-6-((E)-3-((S)pyrrolidin-2-yl)acryloyl)-4,5,6,7-tetrahydrothieno[2,3-c]pyridine-2-carbonitrile]	0.014	0.032	0.114		4 10^-6 cm/s	21 10^-6 cm/s		57 (≈ 31 µg/mL)	70 (≈ 38.1 µg/mL)	0.29			
CCn1cc(-c2c(F)cccc2[C@@H]2CN(C(=O)/C=C/CN(C)C)Cc3sc(C#N)cc32)c(C(F)(F)F)n1 [Example 215, (S,E)-6-(4-(dimethylamino)but-2-enoyl)-4-(2-(1-ethyl-3-(trifluoromethyl)-1 H-pyrazol-4-yl)-3-fluorophenyl)-4,5,6,7-tetrahydrothieno[2,3-c]pyridine-2-carbonitrile]	0.023	0.04	0.0856		15 10^-6 cm/s	20 10^-6 cm/s	1			1.35	0.02		
CCn1cc(-c2c(F)cccc2[C@@H]2CN(C(=O)/C=C/CNC)Cc3sc(C#N)c(C)c32)c(C(F)(F)F)n1 [Example 217, (S, E)-4-(2-(1-ethyl-3-(trifluoromethyl)-1 H-pyrazol-4-yl)-3-fluorophenyl)-3-methyl-6-(4-(methylamino)but-2-enoyl)-4,5,6,7-tetrahydrothieno[2,3-c]pyridine-2-carbonitrile]	0.026	0.028	0.101	0.15	6 10^-6 cm/s	14 10^-6 cm/s	2			0.13	0.013	0.18	0.051
